Measured values from US10988523B2, “Modified lipidated Relaxin B chain peptides and their therapeutic use” (Sanofi, priority 2018, dated 2021).
Values after ≈ are worked out from the molar mass of the structure shown. Where two headings read alike, the source gives them in different places. *1 amine or outer side, *2 acyl side, *3 side chain or, on linkers, in order; H or OH if unused. Where a SMILES comes first, the peptide text is derived from it. Side-chain parts run from the residue outwards. [ ]: non-standard residue; d: D form. The star is where a group is joined. PEG12 = NCCOCCOCCOCCOCCOCCOCCOCCOCCOCCOCCOCCOCCC(=O)O; γGlu = O=C(O)[C@H](CCC(=O)[*:2])N[*:1]; Stearoyl = CCCCCCCCCCCCCCCCCC(=O)*; Palmitoyl = CCCCCCCCCCCCCCCC(=O)*; Nle = CCCC[C@H](N)C(=O)O; AEEA = NCCOCCOCC(=O)O; Aib = CC(C)(N)C(=O)O

What was measured:
[1] = target: T1, RXFP1 (Homo sapiens, UniProt Q9HBX9); test: OVCAR5 cAMP assay (HTRF), RXFP1 agonist activity; format: cell-based; conditions: for Emax: OVCAR-5
T1 construct: OVCAR5 cells expressing endogenous RXFP1; endogenous in cells; host or cells: OVCAR5 cells
T1 sequence (Q9HBX9 1-757): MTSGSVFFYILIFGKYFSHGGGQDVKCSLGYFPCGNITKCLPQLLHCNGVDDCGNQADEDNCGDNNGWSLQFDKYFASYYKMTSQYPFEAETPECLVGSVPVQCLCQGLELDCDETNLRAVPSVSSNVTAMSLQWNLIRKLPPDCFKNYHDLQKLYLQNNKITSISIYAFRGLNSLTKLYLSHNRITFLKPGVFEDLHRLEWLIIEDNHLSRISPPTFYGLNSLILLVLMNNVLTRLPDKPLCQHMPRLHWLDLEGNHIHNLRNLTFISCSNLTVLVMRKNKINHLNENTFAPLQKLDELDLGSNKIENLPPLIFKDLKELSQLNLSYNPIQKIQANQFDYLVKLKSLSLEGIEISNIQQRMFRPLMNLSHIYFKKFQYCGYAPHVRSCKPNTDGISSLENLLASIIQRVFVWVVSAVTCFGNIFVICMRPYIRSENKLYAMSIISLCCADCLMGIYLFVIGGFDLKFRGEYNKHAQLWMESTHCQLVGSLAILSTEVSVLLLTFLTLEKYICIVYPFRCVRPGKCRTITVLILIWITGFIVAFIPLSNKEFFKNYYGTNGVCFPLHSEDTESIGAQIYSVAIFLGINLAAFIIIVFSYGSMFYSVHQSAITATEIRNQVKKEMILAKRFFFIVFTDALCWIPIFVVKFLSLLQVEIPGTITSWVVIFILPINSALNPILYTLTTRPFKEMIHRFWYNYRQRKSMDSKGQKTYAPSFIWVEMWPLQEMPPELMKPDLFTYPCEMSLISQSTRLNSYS
Procedure, shortened: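 OVCAR5 cells (endogenous RXFP1) pretreated 40 min at 37° C with 1 mM IBMX, then exposed to peptides in serum-free medium for 30 min at 37° C. Lysate cAMP read by HTRF; EC50 from variable-slope sigmoidal fit; Emax as % of H2-relaxin maximal cAMP in same run.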

[2] = Solubility testing of peptides in buffer; format: physicochemical
Protocol: Prior to the testing of solubility of a peptide batch, its purity (HPLC-UV) was determined.
Acetate Buffer 50 mM pH4.5: 0.75 g […], 3H2O (Sigma 57545)+0.35 ml CH3CO2H 100% solution dissolved in Millipore water, adjusted to pH with diluted (1:1) CH3CO2H and diluted to 250 ml with Millipore water.
In a 4 ml Ependorph vial, an accurately weighed sample of compound was diluted in study media to obtain target concentration of 2, 6 or 10 mg/ml of pure compound. The sample vials were shacked (rock 'roll shaker) for ˜19 h. 3004, Aliquots ( ) were filtered through a Millipore “Solvinert” plate (0.45 μm—PTFE hydrophilic).
pH was measured with a micro electrode
Waters Acquity UPLC System with DAD detector
Column: Waters Peptide Column CSH C18 (130 Å; 1.7 μm; 50*2.1 mm)
Column temperature: 60° C.
Full loop (about 5 μL)—overfill factor 5
Weak et Strong wash: H2O/ACN (75/25; V/V); Seal wash: H2O/IsOH (95/5; V/V). Mobile phase:
Solvent A: 0.05% TFA in H2O; Solvent B: 0.035% TFA in CH3CN
Gradient: from 0 to 12 min B=2% to 60%, from 12 to 14 min B=60% to 100%. Column washing 100% B 1 min, column equilibration 2% B 2.5 min.
UV detector: wavelength: 220 nm.

[3] = Stability testing of peptides in human plasma or blood; format: in vitro ADME; conditions: 37° C.; for Human Plasma stability % remaining T = 0: human plasma or blood, T = 0 (reference), 5 μM; for remaining at 1 h, 5 µM / remaining at 4 h, 5 µM: human plasma; for remaining at 1 h, 5 µM: read-out: Human Plasma stability % remaining 1 h; for remaining at 4 h, 5 µM: read-out: Human Plasma stability % remaining 4 h
Procedure, shortened: (§1)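 Peptide at 5 µM final was incubated at 37 °C in heparinized rat or human plasma or blood, sampled up to 4 h, and extracted with acetonitrile/1% TFA. HPLC peak areas relative to t0 give % remaining peptide.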

[4] = Stability testing of peptides in rat plasma or blood; format: in vitro ADME; conditions: 37° C.; for Rat plasma stability % remaining T = 0: rat plasma or blood, T = 0 (reference), 5 μM; for remaining at 1 h, 5 µM / remaining at 4 h, 5 µM: rat plasma; for remaining at 1 h, 5 µM: read-out: Rat plasma stability % remaining 1 h; for remaining at 4 h, 5 µM: read-out: Rat plasma stability % remaining 4 h
Procedure, shortened: as §1

[5] = Pharmacokinetic (PK) determination after i.v. or s.c. administration to rats; format: in vivo, Sprague Dawley rats; conditions: Sprague Dawley, Rat PK; for C0 / half-life: iv, 1 mg/kg i.v.; for C0: extrapolated plasma concentration at t=0, read-out: C0; for half-life / Cmax / Tmax / bioavailability: plasma; for half-life: read-out: T½ (converted); for Cmax / Tmax: sc, 3 mg/kg s.c.; for bioavailability: subcutaneous, 3 mg/kg s.c. vs 1 mg/kg i.v., dose-corrected AUC ratio
Procedure, shortened: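 Sprague Dawley rats received peptide in PBS at 1 mg/kg i.v. or 3 mg/kg s.c., dose corrected for salts, solvent and purity. Plasma analysed by LC/MS after protein precipitation; non-compartmental PK, BLQ values set to zero, F% as dose-corrected s.c./i.v. AUC ratio.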

[6] = OVCAR5 cells expressing endogenous RXFP1, cAMP readout, 30 min, 1 mM IBMX, read-out: EC50 cAMP assay in OVCAR 5 cells
[7] = maximal cAMP relative to H2-relaxin maximal cAMP x 100, read-out: Emax cAMP assay in OVCAR 5 cells
[8] = acetate buffer 50 mM pH 4.5, target solubility 2.0 mg/ml, read-out: Solubility Acetate buffer pH 4.5
[9] = phosphate buffer 50 mM pH 7.4, target solubility 2.0 mg/ml, read-out: Solubility phosphate buffer pH 7.4
[10] = maximal cAMP relative to H2-relaxin maximum (100%), read-out: EMax, OVCAR 5 cells (cAMP)
[11] = acetate buffer, pH 4.5, read-out: Solubility Acetate buffer pH 4.5
[12] = phosphate buffer, pH 7.4, read-out: Solubility phosphate buffer pH 7.4

Compound | EC50 [1, 6] [nM] | Emax [1, 7] [%] | solubility [2, 8] [µg/mL] | solubility [2, 9] [µg/mL] | Human Plasma stability % remaining T = 0 [3] [%] | remaining at 1 h, 5 µM [3] [%] | remaining at 4 h, 5 µM [3] [%] | Rat plasma stability % remaining T = 0 [4] [%] | remaining at 1 h, 5 µM [4] [%] | remaining at 4 h, 5 µM [4] [%] | Emax [1, 10] [%] | solubility [2, 11] [µg/mL] | solubility [2, 12] [µg/mL] | C0 [5] [nM] | half-life [5] [h] | Cmax [5] [nM] | Tmax [5] [h] | bioavailability [5] [%] | other results
Ac-VIKLSGRELVRAQIAISGMSTWSKKKK-NH2 [KKKK(AcB7-29 C11.23S), reference compound] | 206 | 84 | 2300 | 177 | 100 | 41 | 31 | 100 | 23 | 14 | – | – | – | – | – | – | – | – | –
Ac-VIKLSGRELVRAQIAISGMSTWSKRSL-NH2 [AcB7-33 C11.23S, reference compound] | – | 70 | 1540 | < 1 | 100 | 67 | 18 | 100 | 16 | 2 | – | – | – | – | – | – | – | – | –
H-VIKLSGRELVRAQIAISGMSTWSKRSL-NH2 [B7-33 C11.23S, reference compound] | 1640 | 90 | – | – | 100 | 18 | 3 | 100 | 15 | 2 | – | – | – | – | – | – | – | – | Solubility Acetate buffer pH 4.5 ([2]; acetate buffer 50 mM pH 4.5, target solubility 2.0 mg/ml): 1.9 mg/ml; Solubility phosphate buffer pH 7.4 ([2]; phosphate buffer 50 mM pH 7.4, target solubility 2.0 mg/ml): 0.014 mg/ml
CCCCCCCCCCCCCCCCCC(=O)N[C@@H](CCC(=O)N[C@@H](CCC(=O)N[C@@H](CCC(=O)NCCCC[C@H](NC(=O)CCOCCOCCOCCOCCOCCOCCOCCOCCOCCOCCOCCOCCNC(=O)[C@H](CCCCN)NC(=O)[C@H](CCCNC(=N)N)NC(=O)C(C)(C)NC(=O)[C@H](CO)NC(=O)[C@H](Cc1c[nH]c2ccccc12)NC(=O)[C@@H](NC(=O)[C@H](CO)NC(=O)[C@H](CCCC)NC(=O)CNC(=O)[C@H](CCC(=O)O)NC(=O)C(C)(C)NC(=O)C(C)(C)NC(=O)[C@@H](NC(=O)[C@H](CCC(N)=O)NC(=O)[C@H](C)NC(=O)[C@H](CCCNC(=N)N)NC(=O)[C@@H](NC(=O)[C@H](CCCCN)NC(=O)[C@H](CCC(=O)O)NC(=O)[C@H](CCCNC(=N)N)NC(=O)CNC(=O)[C@H](CCC(=O)O)NC(=O)[C@H](CC(C)C)NC(C)=O)C(C)C)[C@@H](C)CC)[C@@H](C)O)C(N)=O)C(=O)O)C(=O)O)C(=O)O [compound 30] (Ac-LEGREKVRAQI[Aib][Aib]EG[Nle]STWS[Aib]RK[PEG12]K([γGlu-γGlu-γGlu-Stearoyl])-NH2) | – | – | – | – | – | – | – | – | – | – | 89 | 7000 (≈ 1740 µM) | 7000 (≈ 1740 µM) | 2200 | 4.8 | 600 | 4 | 105 | –
CCCCCCCCCCCCCCCC(=O)N[C@@H](CCC(=O)N[C@@H](CCC(=O)N[C@@H](CCC(=O)NCCCC[C@H](NC(=O)CCOCCOCCOCCOCCOCCOCCOCCOCCOCCOCCOCCOCCNC(=O)[C@H](CCCCN)NC(=O)[C@H](CCCNC(=N)N)NC(=O)C(C)(C)NC(=O)[C@H](CO)NC(=O)[C@H](Cc1c[nH]c2ccccc12)NC(=O)[C@@H](NC(=O)[C@H](CO)NC(=O)[C@H](CCSC)NC(=O)CNC(=O)[C@H](CCC(=O)O)NC(=O)C(C)(C)NC(=O)C(C)(C)NC(=O)[C@@H](NC(=O)[C@H](CCC(N)=O)NC(=O)[C@H](C)NC(=O)[C@H](CCCNC(=N)N)NC(=O)[C@@H](NC(=O)[C@H](CCCCN)NC(=O)[C@H](CCC(=O)O)NC(=O)[C@H](CCCNC(=N)N)NC(=O)CNC(=O)[C@H](CCC(=O)O)NC(=O)[C@H](CC(C)C)NC(C)=O)C(C)C)[C@@H](C)CC)[C@@H](C)O)C(N)=O)C(=O)O)C(=O)O)C(=O)O [compound 23] (Ac-LEGREKVRAQI[Aib][Aib]EGMSTWS[Aib]RK[PEG12]K([γGlu-γGlu-γGlu-Palmitoyl])-NH2) | – | – | – | – | – | – | – | – | – | – | 89 | 7000 (≈ 1740 µM) | 7000 (≈ 1740 µM) | 2900 | 8.96 | 1700 | 6 | 84 | –
CCCCCCCCCCCCCCCCCC(=O)N[C@@H](CCC(=O)N[C@@H](CCC(=O)N[C@@H](CCC(=O)NCCCC[C@H](NC(=O)COCCOCCNC(=O)COCCOCCNC(=O)COCCOCCNC(=O)[C@H](CCCCNC(C)=O)NC(=O)[C@H](CCCCN)NC(=O)[C@H](CCCNC(=N)N)NC(=O)C(C)(C)NC(=O)[C@H](CO)NC(=O)[C@H](Cc1c[nH]c2ccccc12)NC(=O)[C@@H](NC(=O)[C@H](CO)NC(=O)[C@H](CCCC)NC(=O)CNC(=O)[C@H](CCC(=O)O)NC(=O)C(C)(C)NC(=O)C(C)(C)NC(=O)[C@@H](NC(=O)[C@H](CCCCNC(C)=O)NC(=O)[C@H](C)NC(=O)[C@H](CCCNC(=N)N)NC(=O)[C@@H](NC(=O)[C@H](CCCCN)NC(=O)[C@H](CCC(=O)O)NC(=O)[C@H](CCCNC(=N)N)NC(=O)CNC(=O)[C@H](CCC(=O)O)NC(=O)[C@H](CC(C)C)NC(C)=O)C(C)C)[C@@H](C)CC)[C@@H](C)O)C(N)=O)C(=O)O)C(=O)O)C(=O)O [compound 14] (Ac-LEGREKVRAK(Ac)I[Aib][Aib]EG[Nle]STWS[Aib]RKK(Ac)[AEEA][AEEA][AEEA]K([γGlu-γGlu-γGlu-Stearoyl])-NH2) | – | – | – | > 2100 | – | – | – | – | – | – | 88 | – | – | 4000 | 3.4 | 1500 | 6 | 93 | EC50 ([1]; OVCAR5 cells, cAMP HTRF, read-out: EC50 (nM), OVCAR 5 cells (cAMP)): 0.04 nM
